Measured values: patent US11083805B2, “Radiolabeled GRPR-antagonists for diagnostic imaging and treatment of GRPR-positive cancer” (Advanced Accelerator Applications International SA, priority 2012, dated 2021)

Columns and labels:
PC-3 tumors (hGRPR+) = experiment: Biodistribution in GRPR+ tumor bearing mice; format: in vivo, female SCID mice; details: for uptake in PC-3 tumor: iv, 10 pmol total peptide
Method: A 150 μL bolus containing a suspension of 1.5×10^7 freshly harvested human PC-3 cells in normal saline was subcutaneously injected in the flanks of female SCID mice. The animals were kept under aseptic conditions and 2-3 weeks later developed well-palpable tumors at the inoculation site (80-150 mg).
On the day of the experiment, the selected radiopeptide was injected in the tail vein of tumor-bearing mice as a 100 μL bolus (1-2 μCi, 10 pmol total peptide; in saline/EtOH 9/1 v/v). Animals were sacrificed in groups of four under a mild ether anesthesia by cardiac puncture at predetermined time points pi (postinjection). Additional sets of three to four animals were co-injected with excess [Tyr^4]BBN (≈40 nmol) along with test radiopeptide and were sacrificed at 4 h pi (blocked animals). Samples of blood and tissues of interest were immediately collected, weighed and measured for radioactivity in a γ-counter. Stomach and intestines were not emptied of their contents, but measured as collected. Biodistribution data were calculated as percent injected dose per gram tissue (% ID/g) using the Microsoft Excel program with the aid of suitable standards of the injected dose.

[1] = Metabolic study in mice (radiochromatogram of ex-vivo mouse blood); parameters: species or system Swiss albino mice; details: mouse blood 5 min after injection
Method: A bolus containing the radioligand in normal saline (100-150 μL, =3 nmol, 200-500 μCi) was injected in the tail vein of Swiss albino mice. Animals were kept for 5 min in a cage with access to water and were then euthanized promptly by cardiac puncture while under a mild ether anesthesia. Blood (500-900 μL) was collected from the heart with a syringe and transferred in a pre-chilled Eppendorf tube on ice.
Blood was centrifuged to remove blood cells (10 min, 2000 g/4° C.). The plasma was collected, mixed with acetonitrile (MeCN) in a 1/1 v/v ratio and centrifuged again (10 min, 15000 g/4° C.). Supernatants were concentrated to a small volume (gentle N2-flux at 40° C.), diluted with saline (z 400 μL) and filtered through a Millex GV filter (0.22 μm).
Aliquots of plasma samples (prepared as described above) were loaded on a Symmetry Shield RPM column which was eluted at a flow rate of 1.0 mL/min with the following gradient: 100% A to 90% A in 10 min and from 90% A to 60% for the next 60 min (A=0.1% aqueous TFA (v/v) and B=MeCN). Elution of radiocomponents was monitored by a gamma detector. For ^99mTc-radiopeptides, ITLC-SG analysis was performed in parallel using acetone as the eluent to detect traces of TcO4^− release (TcO4^− Rf=1.0).

[2] = tested on: human prostate cancer PC-3 xenografts; details: cited from earlier work
malignant lesions = details: cited from earlier work

In the case of CC(C)CC(CC(C)C)NC(=O)[C@H](Cc1cnc[nH]1)NC(=O)CNC(=O)[C@@H](NC(=O)[C@H](C)NC(=O)[C@H](Cc1c[nH]c2ccccc12)NC(=O)[C@H](CCC(N)=O)NC(=O)[C@@H](Cc1ccccc1)NC(=O)COCC(=O)Nc1ccc(CNC(=O)C2C[N]3CC[NH][Tc]34(=[O])(=[O])[NH]CC[N]4C2)cc1)C(C)C (some centres unmarked) [[99mTc]NeoBOMB-2], the “uptake in PC-3 tumor” value (PC-3 tumors (hGRPR+); 1 h pi) is reported as roughly 30 % ID/g, the “uptake in PC-3 tumor” value (PC-3 tumors (hGRPR+); 4 h pi) is reported as roughly 30 % ID/g and the “uptake in PC-3 tumor” value (PC-3 tumors (hGRPR+); 24 h pi) is reported as greater than 25 % ID/g. For the same compound, the “percentage of parent peptide remaining intact” value [1] was greater than 88%.
For “[^99mTc—N4′]DPhe-Gln-Trp-Ala-Val-Gly-His-Leu-NHEt [[99mTc]Demobesin 1]”, the “tumor accumulation versus bombesin-based agonists ([99mTc]Demobesin 3-6)” value ([2]; mice bearing PC-3 xenografts) is listed as “significantly higher tumor accumulation”, the “clearance from the body of mice and the pancreas” value ([2]; mouse, in vivo) is listed as “cleared very rapidly” and the “body and pancreas clearance” value (malignant lesions; human, in vivo) is listed as “rapid”. For the same compound, the in vivo stability (malignant lesions; human, in vivo) was “rather good”, the tolerability (malignant lesions; human, in vivo) was “excellent tolerability” and the “retention in malignant lesions compared to radiolabeled BBN-like agonists” value (malignant lesions; humans) was “insufficient retention”.
In the case of CC(C)CC(CC(C)C)NC(=O)[C@H](Cc1cnc[nH]1)NC(=O)CNC(=O)[C@@H](NC(=O)[C@H](C)NC(=O)[C@H](Cc1c[nH]c2ccccc12)NC(=O)[C@H](CCC(N)=O)NC(=O)[C@@H](Cc1ccccc1)NC(=O)COCC(=O)Nc1ccc(CNC(=O)CN2CCN(CC(=O)O)CCN(CC(=O)O)CCN(CC(=O)O)CC2)cc1)C(C)C [[177Lu]NeoBOMB-1] [^177Lu-DOTA-(p-aminobenzylamine-diglycolic acid)-[DPhe^6,His^12-CO—NH—CH[(CH2CH(CH3)2]2,des-Leu^13,des-Met^14]BBN(6-14), metal not drawn], the “tumor-to-pancreas ratios over time” value (PC-3 tumors (hGRPR+); 4, 24 and 72 h pi, especially at 72 h pi) is reported as “increasingly higher tumor-to-pancreas ratios” and the “percentage of parent peptide remaining intact” value [1] is reported as greater than 92%.
For CC(C)CC(CC(C)C)NC(=O)[C@H](Cc1cnc[nH]1)NC(=O)CNC(=O)[C@@H](NC(=O)[C@H](C)NC(=O)[C@H](Cc1c[nH]c2ccccc12)NC(=O)[C@H](CCC(N)=O)NC(=O)[C@@H](Cc1ccccc1)NC(=O)COCC(=O)Nc1ccc(CNC(=O)CN2CCN(CC(=O)O)CCN(CC(=O)O)CCN(CC(=O)O)CC2)cc1)C(C)C [[111In]NeoBOMB-1] [^111In-DOTA-(p-aminobenzylamine-diglycolic acid)-[DPhe^6,His^12-CO—NH—CH[(CH2CH(CH3)2)2,des-Leu^13,des-Met^14]BBN(6-14), metal not drawn], the “tumor uptake after co-injection of excess [Tyr4]BBN (in vivo receptor blockade)” value (PC-3 tumors (hGRPR+); 4 h pi, excess [Tyr4]BBN (100 μg)) was “significantly reduced”, the “uptake in PC-3 tumor” value (PC-3 tumors (hGRPR+); 4 h pi) was 28.6±6.0 % ID/g and the “uptake in PC-3 tumor” value (PC-3 tumors (hGRPR+); 24 h pi) was 25.9±6.6 % ID/g. The “percentage of parent peptide remaining intact” value [1] was greater than 91%.
With CC(C)CC(CC(C)C)NC(=O)[C@H](Cc1cnc[nH]1)NC(=O)CNC(=O)[C@@H](NC(=O)[C@H](C)NC(=O)[C@H](Cc1c[nH]c2ccccc12)NC(=O)[C@H](CCC(N)=O)NC(=O)[C@@H](Cc1ccccc1)NC(=O)COCC(=O)Nc1ccc(CNC(=O)CN2CCN(CC(=O)O)CCN(CC(=O)O)CCN(CC(=O)O)CC2)cc1)C(C)C [[67Ga]NeoBOMB-1] [^67Ga-DOTA-(p-aminobenzylamine-diglycolic acid)-[DPhe^6,His^12-CO—NH—CH[(CH2CH(CH3)2]2,des-Leu^3, des-Met^4]BBN(6-14), metal not drawn] the “percentage of parent peptide remaining intact” value [1] was greater than 97%.
